From patent publication US20260014132A1, “PROTEASE ACTIVATED RECEPTOR 2 (PAR2) INHIBITOR AND ITS USES” (UNIVERSITÀ DEGLI STUDI DI PADOVA, priority 2022, published 2026)

Experiments:
PAR2 [1] = experiment: PAR2 mRNA expression (qPCR) in LPS-stimulated THP-1 cells; type: cell-based, human
Procedure: (§1) In order to evaluate the effect of 1-Piperidin Propionic acid on the transcriptional activity of the membrane receptor Protease Activated Receptor-2 (PAR2), monocyte-derived cell line THP-1 was used. The cells were incubated with LPS, known to induce PAR2 expression in this cell compartment, at a concentration of 1 ng/ml, or with medium alone, as a control, for 2 hours with 1-PPA at a concentration of 1 ng/ml and 100 ng/ml. In further experiments transfected HepG2 cells were used transiently with plasmid containing the human PAR2 sequence by Lipofectamy. These cells were incubated with medium alone, as a control, or with increasing concentrations of 1-PPA, as described above. Cell extracts from both lines were then subjected to extraction of cellular RNA which was reverse transcribed into cDNA and amplified by qPCR.
(§2) Similar results were also obtained in transfected HepG2 cells transiently to overexpress PAR2.

PAR2 [2] = experiment: PAR2 mRNA expression (qPCR) in HepG2 cells transiently transfected to overexpress PAR2; type: cell-based, human
Procedure: as §1, §2

PAR2 [3] = experiment: Cellular Thermal Shift Assay (CETSA) and Western blot in lysates of HepG2 cells overexpressing PAR2; type: binding, human; details: soluble fraction of extracts of HepG2 overexpressing PAR2, progressive increase in temperature
Source text: These interaction data between 1-PPA and PAR2 were also confirmed at the protein level, using the cellular thermal shift assay (CETSA) (Science 341 (6141): 84-87). This is a biophysical assay based on the principle of ligand-induced thermal stabilization of target proteins, as the melting temperature of proteins changes according to the interaction of the ligand.
This conformation was identified as level class 0, which is the highest scoring and most reliable analysis. […] In particular, HepG2 cells have been genetically modified to overexpress transiently PAR 2 using cDNA as expression plasmid 3.1. The soluble fraction of the cell extracts was then subjected to the CETSA test, in the presence or absence of 1-PPA, according to the protocol. The samples were also studied by Wester blot using an anti HA-tag PAR 2 monoclonal antibody.

TNF-α = experiment: LPS-induced TNF-α transcriptional expression in THP-1 cells (RT-PCR); type: cell-based, human
Procedure: (§3) Given that PAR2 is deeply implicated in the induction of proinflammatory cytokines, the ability of PPA in the inhibition of proinflammatory cytokines in a context simulating bacterial sepsis was evaluated. In FIGS. 3A and 3B the THP-1 cell line of monocytic origin was used, incubated with LPS ([…]), which in example 1 had induced an increase in the synthesis of endogenous PAR2. Cells were simultaneously treated with 1-PPA at a concentration of 1 ng/ml or 100 ng/ml or medium alone as control and incubated for 1 or 4 hours. The cell extracts were used to analyze the transcriptional expression of the cytokines TNF-α and IL-1β by RT-PCR.

IL-1β = experiment: LPS-induced IL-1β transcriptional expression in THP-1 cells (RT-PCR); type: cell-based, human
Procedure: as §3

platelet aggregation = experiment: Platelet aggregation, TRAP test, Multiplate analyzer, whole blood; type: cell-based; details: TRAP-6, increasing concentrations of 1-PPA
Source text: The analysis of platelet function can be performed by the Multiplate® analyzer (Roche Diagnostics) which is a method based on impedance aggregometry and can be used to measure platelet function in whole blood in the presence or absence of inhibitors. In particular the TRAP test is an assay for the in vitro quantitative determination of platelet function triggered by thrombin receptor activating peptide-6 (TRAP-6) which is a potent platelet activator and stimulates platelet aggregation through the thrombin receptor PAR-1, this peptide has also been found capable of activating PAR2 (Cas #AS-24190-25, CliniScience), which can be activated by thrombin in the presence of thrombomodulin (Heuberger et al, Thrombosis Research 2019, 177:91-101).
Multiplate® Analyzer, Roche Diagnostics) was used, where the blood sample was analyzed alone or in presence of increasing concentrations of 1-PPA.

gouty arthritis = experiment: Mouse model of gouty arthritis (uric acid microcrystals in hind paw); type: in vivo, mice (C57BL6J)
Source text: To evaluate the inhibitory capacity of 1-PPA in pain perception, notoriously mediated by PAR2 as a receptor of peripheral nerve endings (Andrea S. Rothmeier & Wolfram Ruf. Semin Immunopathol, 2012; 34:133-149), an experimental model of inflammatory arthritis was used. In particular, a mouse model of gout was used by injecting microcrystals of uric acid subcutaneously into the plantar surface of the hind legs of mice (C57BL6J), followed by injection of 1-PPA at different concentrations in one hind leg, using the contralateral leg as a control. After a few hours, the microcrystal treatment induces swelling and edema at the injection site which reaches a peak of inflammation and pain at 48 hours and then resolves spontaneously.
To evaluate the intensity of pain, the electronic von Frey test was used, which involves recording the intensity of the stimulus that evokes a withdrawal reflex, after the application of the pain stimulus to the plantar surface of the hind leg.

LPS-induced sepsis = experiment: LPS-induced systemic sepsis model in mice; type: in vivo, C57BL/6 J mice; details: LPS about 10 mg/kg intraperitoneal
Procedure: In vivo experiments are underway on models of systemic sepsis, in order to validate the protective effect of 1-PPA against the development of cytokine storm and septic shock with multiple organ failure, using C57BL/6 J mice. The first part of the study consists in the induction of sepsis through LPS and experimental treatment with 1-PPA.
The intraperitoneal administration with LPS (about 10 mg/kg, L4130, Sigma-Aldrich) associated with 1-PPA or alternatively with PBS, was carried out under anesthesia (Sevorane at 4% in medical oxygen) through the use of Fluovac (Harvard Instruments), dedicated for the anesthesia of small animals.
The time interval of 8 hours is considered the optimal interval for observing the onset of scientifically quantifiable sepsis in mice, and for evaluating the efficacy of a treatment aimed at inhibiting it by administering 1-PPA.
FIG. 6A illustrates the experimental design and the quantification of the degree of malaise using a score commonly used to determine the condition of the animal, where 0 refers to the normal condition and 5 refers to a pre-terminal condition. A score of 6 was attributed to the death of the animal.

HepG2 cell line = experiment: In vitro toxicity, real-time cell proliferation (XCelligence) in HepG2; type: cell-based
Source text: Real-time cell proliferation was monitored using the XCelligence tool (ACEA) and the results were expressed as Cell Index, which expresses the cell number at each point considered.

[4] = In vivo organ damage (liver, kidney) after 26 weeks of 1-PPA; design: species or system CC57/BL6 mice; details: 0.07 and 0.7 μg/g/week, normal diet, serum
Procedure: The organ damage of the 1-PPA compound in vivo was also evaluated, considering the function of the liver and kidney, the main organs responsible for pharmacological catabolismln detail, the study included 2 groups of CC57/BL6 mice (4 mice/group, age 45 days), inoculated with 1-PPA at concentrations of 0.07 and 0.7 μg/g/week), for a time period of 26 weeks. All animals were fed a normal diet throughout the study. Before starting the 1-PPA inoculation, a basal blood sample was taken from all animals and a second sample was taken from the sacrifice.
At serum level, alanine aminotransferase (ALT) as an indicator of hepatic cytolytic damage, bilirubin as an indicator of hepatic cholestasis, blood urea nitrogen (Blood urea nitrogen, BUN) as an indicator of renal damage were evaluated. The results were expressed as the ratio between the value of the final sampling and that of the basal sampling.

chronic kidney disease = experiment: CKD induced by folic acid and treatment with 1-PPA; type: in vivo, mouse; details: FA 125 mg/kg i.p., 1-PPA i.p. 0.1 μg/g from third day, thirtieth day, expected
Procedure: A single intraperitoneal injection of FA (dosage of 125 mg/kg) induces renal damage which reproduces the analogous syndrome in man after 30 days. To ensure maximum precision and least distress for the animal, the 1-PPA inoculation is performed by anesthetizing the mouse for a few minutes using deep inhalation surgical anesthesia using 4% Sevorane in medical oxygen administered through a Fluovac device (Harvard Instruments) specifically dedicated to the anesthesia of laboratory rodents.
Treatment with 1-PPA (i.p. injection at a concentration of 0.1 μg/g of body weight) begins from the third day after the induction of renal damage (groups FA+1-PPA). Control groups are treated with PBS (FA+PBS groups).
Renal function is monitored weekly by semiquantitative evaluation of proteinuria using multistix (Siemens). For urine collection, the […] is placed in a carefully cleaned plexiglass tray, in the presence of dedicated environmental enrichment. After 30 days from the induction of the renal damage the animals are sacrificed by cervical dislocation or excess anesthesia. Peripheral blood is collected by intracardiac puncture, and kidneys and liver are sampled in formalin and at −80° C. for subsequent evaluations of IHC and gene expression. […]

[5] = THP-1, 1-PPA 1 ng/ml or 100 ng/ml, 1 or 4 hours

O=C(O)CCN1CCCCC1 [1-PPA, 1-Piperidine Propionic Acid]
PAR2 mRNA expression (PAR2 [1]; THP-1 cells, LPS 1 ng/ml, 2 hours, 1-PPA 1 ng/ml and 100 ng/ml): marked reduction of its expression | concentration capable of inhibiting the synthesis of PAR2 (PAR2 [1]; THP-1 line, PAR2 overexpression conditions): 1 ng/mL | concentration capable of inhibiting the synthesis of PAR2 (PAR2 [2]; HepG2 line, PAR2 overexpression conditions): 1 ng/mL | PAR2 mRNA expression (PAR2 [2]; HepG2 transiently transfected with human PAR2 plasmid, increasing concentrations of 1-PPA): effective inhibition of PAR2 mRNA | thermal stabilization of PAR2 protein (CETSA) (PAR2 [3]): thermal stability of the PAR2 protein | TNF-α transcriptional expression induced by LPS (TNF-α; [5]): effectively blocked | concentration at which inhibitory effect is achieved (TNF-α; THP-1, LPS): 1 ng/mL | IL-1β transcriptional expression induced by LPS (IL-1β; [5]): effectively blocked | concentration at which inhibitory effect is achieved (IL-1β; THP-1, LPS): 1 ng/mL | control of IL-1β synthesis over time (IL-1β; lowest 1-PPA concentration (1 ng/ml), persisting LPS induction): still more effective in controlling the synthesis | platelet aggregation (platelet aggregation): inhibiting platelet aggregation in a dose-dependent manner | stimulus to induce the withdrawal reflex (electronic von Frey test) (gouty arthritis; compared to mice injected only with microcrystals): significantly greater stimulus | paw edema and redness (confirmed by paw circumference) (gouty arthritis; urate microcrystals subcutaneously in plantar surface, 1-PPA injected in hind leg, versus not treated): visually less edematous and reddened | degree of malaise score (0 normal, 5 pre-terminal, 6 death) (LPS-induced sepsis; 1-PPA 3 μg, maximum reached): ≤ 2 | protection from LPS-induced sepsis (LPS-induced sepsis; low concentrations of 1-PPA): protected mice from LPS-induced sepsis | non-toxic concentration relative to biologically effective dose (HepG2 cell line; 5 μg/ml versus biologically effective dose): at least 50 times | cellular toxic effect (Cell Index) (HepG2 cell line; HepG2, 5 μg/ml): did not demonstrate a cellular toxic effect | alanine aminotransferase (ALT), ratio final/basal sampling [4]: < 2 ×normal values | bilirubin, ratio final/basal sampling [4]: < 2 ×normal values | blood urea nitrogen (BUN), ratio final/basal sampling [4]: < 2 ×normal values | mean value of proteinuria measured in the urine (chronic kidney disease): moderate residual damage
